Counter-ions that a name gives are not always drawn. Like-named read-outs stand apart in the source and are kept apart here.
Legend:
[1] = tested on: cardiomyocytes; test: Multi-electrode assay (MEA) of cellular responses to adrenergic stimulation; type: cell-based, human; settings: upon exposure
Method: To further characterize the functionality of the cardiomyocytes, single cell patch clamp and multi-electrode assay (MEA) were utilized to measure their action potential. 13.60% mimicked the nodal subtype, 22.20% mimicked the atrial subtype, and 64.20% mimicked the heart ventricle subtype (see FIG. 8(C)).
(§1) Cellular responses to adrenergic stimulation were also tested with MEA.

[2] = tested on: cardiomyocytes; test: Cell viability assay (ATP content) on hESC-derived cardiomyocytes; type: cell-based; settings: Homo sapiens, Cardiomyocyte, read-out: EC50 (cell viability, ATP content)
Method: FIG. 12G is a graph showing ATP content (relative light units×1000) versus log concentration of valinomycin. The y-axis runs from 0 to 5 in increments of 1. The x-axis runs from −7 to −3 in increments of 1.
FIG. 12H is a graph showing ATP content (relative light units×1000) versus log concentration of emetine dihydrochloride. The y-axis runs from 0 to 6 in increments of 2. The x-axis runs from −8 to −3 in increments of 1.
as §1

Question: `CC(C)NCC(O)c1ccc(NS(C)(=O)=O)cc1` (stereo not shown) [Sotalol] was tested. Which “corrected field potential duration (cFPD)” value [1] did it give?
Answer: The value was “shortened corrected field potential duration (cFPD)”.

Question: Which EC50 ([2]; hESC-derived cardiomyocytes, FIG. 12G/12H) does the source give for `CC[C@H]1CN2CCc3cc(OC)c(OC)cc3[C@@H]2C[C@@H]1C[C@H]1NCCc2cc(OC)c(OC)cc21` [emetine dihydrochloride] here?
Answer: The EC50 was 6.08 µM.

Question: How did the heart rate [1] turn out when `CC(C)NCC(O)c1ccc(O)c(O)c1` (stereo not shown) [isoproterenol] was run?
Answer: Its heart rate is “increased heart rate”.

Question: With `CC(C)[C@@H]1NC(=O)[C@H](C)OC(=O)[C@@H](C(C)C)NC(=O)[C@@H](C(C)C)OC(=O)[C@H](C(C)C)NC(=O)[C@H](C)OC(=O)[C@@H](C(C)C)NC(=O)[C@@H](C(C)C)OC(=O)[C@H](C(C)C)NC(=O)[C@H](C)OC(=O)[C@@H](C(C)C)NC(=O)[C@@H](C(C)C)OC1=O` [valinomycin] as the molecule, how does the EC50 [2] read?
Answer: Its EC50 is 13.1 µM.

Source: US12680078B2, “Differentiation of pluripotent stem cells and cardiac progenitor cells into striated cardiomyocyte fibers using laminins LN-511, LN-521 and LN-221” (National University of Singapore, priority 2013, dated 2026)
